{"source": "patent US10538555B2", "about": "“Macrocyclic inhibitors of the PD-1/PD-L1 and CD80(B7-1)/PD-L1 protein/protein interactions” (BRISTOL-MYERS SQUIBB COMPANY, priority 2014, dated 2020)", "note": "*1 amine or outer side, *2 acyl side, *3 side chain or, on linkers, in order; H or OH if unused. Where a SMILES comes first, the peptide text is derived from it. Bridges are numbered along the chain shown (N, C = ends). [ ]: non-standard residue; d: D form. Phe(3,4,5-F3) = N[C@@H](Cc1cc(F)c(F)c(F)c1)C(=O)O; NMePhe(4-F) = CN[C@@H](Cc1ccc(F)cc1)C(=O)O; d(cisHyp) = O=C(O)[C@H]1C[C@@H](O)CN1; NMeY = CN[C@@H](Cc1ccc(O)cc1)C(=O)O; NMeF = CN[C@@H](Cc1ccccc1)C(=O)O; X1 = O=C([C@H]1COCCN1[*:1])[*:2]; NMeNle = CCCC[C@H](NC)C(=O)O; dPip = O=C(O)[C@H]1CCCCN1; Orn = NCCC[C@H](N)C(=O)O; Dab = NCC[C@H](N)C(=O)O; Dap = NC[C@H](N)C(=O)O"}
{"target": "T1, Human PD-L1/PD-1 (Homo sapiens, UniProt Q9NZQ7)", "T1 construct": "TVMV protease cleavage site (C); made in house; host or cells: HEK293T cells", "T1 sequence (Q9NZQ7 with tags, fused parts or gaps)": "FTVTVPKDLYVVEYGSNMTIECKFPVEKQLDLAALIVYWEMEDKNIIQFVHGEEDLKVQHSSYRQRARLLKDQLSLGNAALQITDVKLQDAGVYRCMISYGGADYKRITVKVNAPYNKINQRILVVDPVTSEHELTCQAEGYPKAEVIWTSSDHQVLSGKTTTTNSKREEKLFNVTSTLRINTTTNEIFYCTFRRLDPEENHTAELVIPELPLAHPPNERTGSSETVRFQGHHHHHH", "assay": "HTRF Human PD-L1/PD-1 binding assay (PD-1-Ig/PD-L1-His)", "conditions": "PD-L1-His 10 nM, PD-1-Ig 20 nM; class symbol; read-out: HTRF Human PD-L1/PD-1 Binding Assay IC50 Range", "in_short": "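Inhibitors were preincubated 15 min with human PD-L1(18-239)-His (10 nM final), then PD-1(25-167)-Ig (20 nM final) was added for 15 min in dPBS/0.1% BSA/0.05% Tween-20. Eu-cryptate anti-Ig (1 nM) and APC anti-His (20 nM) were added; 665/620 nm ratio read after 30 min.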", "units": {"IC50": "nM"}}
{"compound": "CCCC[C@H]1C(=O)N2C[C@H](O)C[C@@H]2C(=O)N[C@@H](CC(=O)O)C(=O)N[C@@H](C(C)C)C(=O)N(C)[C@@H](Cc2ccccc2)C(=O)N[C@@H](CCC(=O)O)C(=O)N2CCOC[C@@H]2C(=O)N[C@@H](Cc2c[nH]c3ccccc23)C(=O)N[C@@H](Cc2ccc(O)cc2)C(=O)N[C@@H](CC(C)C)C(=O)N[C@H](C(=O)NCC(N)=O)CSCC(=O)N[C@@H](Cc2cc(F)c(F)c(F)c2)C(=O)N(C)[C@@H](Cc2ccc(F)cc2)C(=O)N1C", "note": "[Example 10594] ({CH2CO}-[Phe(3,4,5-F3)][NMePhe(4-F)][NMeNle][d(cisHyp)]DV[NMeF]E[X1]WYLCG-NH2; thioether N-13)", "IC50": "1 to 9.9"}
{"compound": "CCCC[C@H]1C(=O)N2C[C@H](O)C[C@@H]2C(=O)N[C@@H](CC(=O)O)C(=O)N[C@@H](C(C)C)C(=O)N(C)[C@@H](Cc2ccccc2)C(=O)N[C@@H](CCC(=O)O)C(=O)N2CCOC[C@@H]2C(=O)N[C@@H](Cc2c[nH]c3ccccc23)C(=O)N[C@@H](Cc2ccc(O)cc2)C(=O)N[C@@H](CCC(N)=O)C(=O)N[C@H](C(=O)NCC(N)=O)CSCC(=O)N[C@@H](Cc2cc(F)c(F)c(F)c2)C(=O)N(C)[C@@H](Cc2ccc(F)cc2)C(=O)N1C", "note": "[Example 10595] ({CH2CO}-[Phe(3,4,5-F3)][NMePhe(4-F)][NMeNle][d(cisHyp)]DV[NMeF]E[X1]WYQCG-NH2; thioether N-13)", "IC50": "1 to 9.9"}
{"compound": "CCCC[C@H]1C(=O)N2CCC[C@@H]2C(=O)N[C@@H](CC(=O)O)C(=O)N[C@@H](C(C)C)C(=O)N(C)[C@@H](Cc2ccccc2)C(=O)N[C@@H](CCC(=O)O)C(=O)N2CCOC[C@@H]2C(=O)N[C@@H](Cc2c[nH]c3ccccc23)C(=O)N[C@@H](Cc2ccc(O)cc2)C(=O)N[C@@H](CCCN)C(=O)N[C@H](C(=O)NCC(N)=O)CSCC(=O)N[C@@H](Cc2cc(F)c(F)c(F)c2)C(=O)N(C)[C@@H](Cc2ccc(F)cc2)C(=O)N1C", "note": "[Example 10596] ({CH2CO}-[Phe(3,4,5-F3)][NMePhe(4-F)][NMeNle][dP]DV[NMeF]E[X1]WY[Orn]CG-NH2; thioether N-13)", "IC50": "1 to 9.9"}
{"compound": "CCCC[C@H]1C(=O)N2CCC[C@@H]2C(=O)N[C@@H](CC(=O)O)C(=O)N[C@@H](C(C)C)C(=O)N(C)[C@@H](Cc2ccccc2)C(=O)N[C@@H](CCC(=O)O)C(=O)N2CCOC[C@@H]2C(=O)N[C@@H](Cc2c[nH]c3ccccc23)C(=O)N[C@@H](Cc2ccc(O)cc2)C(=O)N[C@@H](CC(N)=O)C(=O)N[C@H](C(=O)NCC(N)=O)CSCC(=O)N[C@@H](Cc2cc(F)c(F)c(F)c2)C(=O)N(C)[C@@H](Cc2ccc(F)cc2)C(=O)N1C", "note": "[Example 10597] ({CH2CO}-[Phe(3,4,5-F3)][NMePhe(4-F)][NMeNle][dP]DV[NMeF]E[X1]WYNCG-NH2; thioether N-13)", "IC50": "1 to 9.9"}
{"compound": "CCCC[C@H]1C(=O)N2CCC[C@@H]2C(=O)N[C@@H](CC(=O)O)C(=O)N[C@@H](C(C)C)C(=O)N(C)[C@@H](Cc2ccccc2)C(=O)N[C@@H](CCC(=O)O)C(=O)N2CCOC[C@@H]2C(=O)N[C@@H](Cc2c[nH]c3ccccc23)C(=O)N[C@@H](Cc2ccc(O)cc2)C(=O)N[C@@H](CCCCN)C(=O)N[C@H](C(=O)NCC(N)=O)CSCC(=O)N[C@@H](Cc2cc(F)c(F)c(F)c2)C(=O)N(C)[C@@H](Cc2ccc(F)cc2)C(=O)N1C", "note": "[Example 10598] ({CH2CO}-[Phe(3,4,5-F3)][NMePhe(4-F)][NMeNle][dP]DV[NMeF]E[X1]WYKCG-NH2; thioether N-13)", "IC50": "1 to 9.9"}
{"compound": "CCCC[C@H]1C(=O)N2CCC[C@@H]2C(=O)N[C@@H](CC(=O)O)C(=O)N[C@@H](C(C)C)C(=O)N(C)[C@@H](Cc2ccccc2)C(=O)N[C@@H](CCC(=O)O)C(=O)N2CCOC[C@@H]2C(=O)N[C@@H](Cc2c[nH]c3ccccc23)C(=O)N[C@@H](Cc2ccc(O)cc2)C(=O)N[C@@H](CC(C)C)C(=O)N[C@H](C(=O)NCC(N)=O)CSCC(=O)N[C@@H](Cc2cc(F)c(F)c(F)c2)C(=O)N(C)[C@@H](Cc2ccc(O)cc2)C(=O)N1C", "note": "[Example 10599] ({CH2CO}-[Phe(3,4,5-F3)][NMeY][NMeNle][dP]DV[NMeF]E[X1]WYLCG-NH2; thioether N-13)", "IC50": "1 to 9.9"}
{"compound": "CCCC[C@H]1C(=O)N2CCC[C@@H]2C(=O)N[C@@H](CC(=O)O)C(=O)N[C@@H](C(C)C)C(=O)N(C)[C@@H](Cc2ccccc2)C(=O)N[C@@H](CCC(=O)O)C(=O)N2CCCC[C@@H]2C(=O)N[C@@H](Cc2c[nH]c3ccccc23)C(=O)N[C@@H](Cc2ccc(O)cc2)C(=O)N[C@@H](CCN)C(=O)N[C@H](C(=O)NCC(N)=O)CSCC(=O)N[C@@H](Cc2cc(F)c(F)c(F)c2)C(=O)N(C)[C@@H](Cc2ccc(O)cc2)C(=O)N1C", "note": "[Example 10600] ({CH2CO}-[Phe(3,4,5-F3)][NMeY][NMeNle][dP]DV[NMeF]E[dPip]WY[Dab]CG-NH2; thioether N-13)", "IC50": "1 to 9.9"}
{"compound": "CCCC[C@H]1C(=O)N2CCC[C@@H]2C(=O)N[C@@H](CC(=O)O)C(=O)N[C@@H](C(C)C)C(=O)N(C)[C@@H](Cc2ccccc2)C(=O)N[C@@H](CCC(=O)O)C(=O)N2CCCC[C@@H]2C(=O)N[C@@H](Cc2c[nH]c3ccccc23)C(=O)N[C@@H](Cc2ccc(O)cc2)C(=O)N[C@@H](CCCN)C(=O)N[C@H](C(=O)NCC(N)=O)CSCC(=O)N[C@@H](Cc2cc(F)c(F)c(F)c2)C(=O)N(C)[C@@H](Cc2ccc(O)cc2)C(=O)N1C", "note": "[Example 10601] ({CH2CO}-[Phe(3,4,5-F3)][NMeY][NMeNle][dP]DV[NMeF]E[dPip]WY[Orn]CG-NH2; thioether N-13)", "IC50": "1 to 9.9"}
{"compound": "CCCC[C@H]1C(=O)N2CCC[C@@H]2C(=O)N[C@@H](CC(=O)O)C(=O)N[C@@H](C(C)C)C(=O)N(C)[C@@H](Cc2ccccc2)C(=O)N[C@@H](CCC(=O)O)C(=O)N2CCCC[C@@H]2C(=O)N[C@@H](Cc2c[nH]c3ccccc23)C(=O)N[C@@H](Cc2ccc(O)cc2)C(=O)N[C@@H](CC(C)C)C(=O)N[C@H](C(=O)NCC(N)=O)CSCC(=O)N[C@@H](Cc2cc(F)c(F)c(F)c2)C(=O)N(C)[C@@H](Cc2ccc(OC)cc2)C(=O)N1C", "note": "[Example 10602] ({CH2CO}-[Phe(3,4,5-F3)][NMeY](Me)[NMeNle][dP]DV[NMeF]E[dPip]WYLCG-NH2; thioether N-13)", "IC50": "1 to 9.9"}
{"compound": "CCCC[C@H]1C(=O)N2CCC[C@@H]2C(=O)N[C@@H](CC(=O)O)C(=O)N[C@@H](C(C)C)C(=O)N(C)[C@@H](Cc2ccccc2)C(=O)N[C@@H](CCC(=O)O)C(=O)N2CCCC[C@@H]2C(=O)N[C@@H](Cc2c[nH]c3ccccc23)C(=O)N[C@@H](Cc2ccc(O)cc2)C(=O)N[C@@H](CCN)C(=O)N[C@H](C(=O)NCC(N)=O)CSCC(=O)N[C@@H](Cc2cc(F)c(F)c(F)c2)C(=O)N(C)[C@@H](Cc2ccc(OC)cc2)C(=O)N1C", "note": "[Example 10603] ({CH2CO}-[Phe(3,4,5-F3)][NMeY](Me)[NMeNle][dP]DV[NMeF]E[dPip]WY[Dab]CG-NH2; thioether N-13)", "IC50": "1 to 9.9"}
{"compound": "CCCC[C@H]1C(=O)N2CCC[C@@H]2C(=O)N[C@@H](CC(=O)O)C(=O)N[C@@H](C(C)C)C(=O)N(C)[C@@H](Cc2ccccc2)C(=O)N[C@@H](CCC(=O)O)C(=O)N2CCOC[C@@H]2C(=O)N[C@@H](Cc2c[nH]c3ccccc23)C(=O)N[C@@H](Cc2ccc(O)cc2)C(=O)N[C@@H](CCN)C(=O)N[C@H](C(=O)NCC(N)=O)CSCC(=O)N[C@@H](Cc2cc(F)c(F)c(F)c2)C(=O)N(C)[C@@H](Cc2ccc(F)cc2)C(=O)N1C", "note": "[Example 10605] ({CH2CO}-[Phe(3,4,5-F3)][NMePhe(4-F)][NMeNle][dP]DV[NMeF]E[X1]WY[Dab]CG-NH2; thioether N-13)", "IC50": "1 to 9.9"}
{"compound": "CCCC[C@H]1C(=O)N2CCC[C@@H]2C(=O)N[C@@H](CC(=O)O)C(=O)N[C@@H](C(C)C)C(=O)N(C)[C@@H](Cc2ccccc2)C(=O)N[C@@H](CCC(=O)O)C(=O)N2CCOC[C@@H]2C(=O)N[C@@H](Cc2c[nH]c3ccccc23)C(=O)N[C@@H](Cc2ccc(O)cc2)C(=O)N[C@@H](CN)C(=O)N[C@H](C(=O)NCC(N)=O)CSCC(=O)N[C@@H](Cc2cc(F)c(F)c(F)c2)C(=O)N(C)[C@@H](Cc2ccc(F)cc2)C(=O)N1C", "note": "[Example 10606] ({CH2CO}-[Phe(3,4,5-F3)][NMePhe(4-F)][NMeNle][dP]DV[NMeF]E[X1]WY[Dap]CG-NH2; thioether N-13)", "IC50": "1 to 9.9"}
{"compound": "CCCC[C@H]1C(=O)N2CCC[C@@H]2C(=O)N[C@@H](CC(=O)O)C(=O)N[C@@H](C(C)C)C(=O)N(C)[C@@H](Cc2ccccc2)C(=O)N[C@@H](CCC(=O)O)C(=O)N2CCOC[C@@H]2C(=O)N[C@@H](Cc2c[nH]c3ccccc23)C(=O)N[C@@H](Cc2ccc(O)cc2)C(=O)N[C@@H](CCC(N)=O)C(=O)N[C@H](C(=O)NCC(N)=O)CSCC(=O)N[C@@H](Cc2cc(F)c(F)c(F)c2)C(=O)N(C)[C@@H](Cc2ccc(F)cc2)C(=O)N1C", "note": "[Example 10607] ({CH2CO}-[Phe(3,4,5-F3)][NMePhe(4-F)][NMeNle][dP]DV[NMeF]E[X1]WYQCG-NH2; thioether N-13)", "IC50": "1 to 9.9"}
{"compound": "CCCC[C@H]1C(=O)N2CCC[C@@H]2C(=O)N[C@@H](CC(=O)O)C(=O)N[C@@H](C(C)C)C(=O)N(C)[C@@H](Cc2ccccc2)C(=O)N[C@@H](CCC(=O)O)C(=O)N2CCCC[C@@H]2C(=O)N[C@H](CCC(=O)O)C(=O)N[C@@H](Cc2ccc(O)cc2)C(=O)N[C@@H](CCCN)C(=O)N[C@H](C(=O)NCC(N)=O)CSCC(=O)N[C@@H](Cc2cc(F)c(F)c(F)c2)C(=O)N(C)[C@@H](Cc2ccc(F)cc2)C(=O)N1C", "note": "[Example 10608] ({CH2CO}-[Phe(3,4,5-F3)][NMePhe(4-F)][NMeNle][dP]DV[NMeF]E[dPip][dE]Y[Orn]CG-NH2; thioether N-13)", "IC50": "1000 to 10000"}
{"compound": "CCCC[C@H]1C(=O)N2CCC[C@@H]2C(=O)N[C@@H](CC(=O)O)C(=O)N[C@@H](C(C)C)C(=O)N(C)[C@@H](Cc2ccccc2)C(=O)N[C@@H](CCN)C(=O)N2CCCC[C@@H]2C(=O)N[C@H](CCC(=O)O)C(=O)N[C@@H](Cc2ccc(O)cc2)C(=O)N[C@@H](CCCN)C(=O)N[C@H](C(=O)NCC(N)=O)CSCC(=O)N[C@@H](Cc2cc(F)c(F)c(F)c2)C(=O)N(C)[C@@H](Cc2ccc(F)cc2)C(=O)N1C", "note": "[Example 10609] ({CH2CO}-[Phe(3,4,5-F3)][NMePhe(4-F)][NMeNle][dP]DV[NMeF][Dab][dPip][dE]Y[Orn]CG-NH2; thioether N-13)", "IC50": "100 to 990"}
